Measured values published in patent publication US20050112573A1, “Method of detecting toxic substance” (priority 2001, published 2005).

Test system: yeast genes (level of expressed mRNA)
Assay: DNA chip analysis of expressed mRNA of yeast genes after 2 h culture with a toxic chemical substance
Type: cell-based, Saccharomyces cerevisiae S288C
Outline: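 S. cerevisiae S288C in YPD at 25 °C was exposed at log phase for 2 h to a growth-inhibiting, non-lethal concentration of the chemical. Poly(A) mRNA was reverse-transcribed with Cy3- or Cy5-dUTP and hybridized to a whole-genome yeast DNA chip (65 °C, >12 h). Values are fluorescence ratios versus untreated cells.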

manganese ethylenebis(dithiocarbamate) [(8)]
The level of expressed mRNA in the presence of chemical substance/ (yeast gene YNL074C, ratio to control without chemical substance, 2 h culture): 0.6
The level of expressed mRNA in the presence of chemical substance/ (yeast gene YNL092W, ratio to control without chemical substance, 2 h culture): 0.9
The level of expressed mRNA in the presence of chemical substance/The level of expressed mRNA in the absence of chemical substance (yeast gene YNL093W): 0.8
The level of expressed mRNA in the presence of chemical substance/ (yeast gene YNL115C, ratio to control without chemical substance, 2 h culture): 0.8
The level of expressed mRNA in the presence of chemical substance/ (yeast gene YNL156C, ratio to control without chemical substance, 2 h culture): 1.2
The level of expressed mRNA in the presence of chemical substance/ (yeast gene YNL234W, ratio to control without chemical substance, 2 h culture): 1.3
The level of expressed mRNA in the presence of chemical substance/ (yeast gene YNL281W, ratio to control without chemical): 1.2
The level of expressed mRNA in the presence of chemical substance/ (yeast gene YNL305C, ratio to control without chemical): 0.7
The level of expressed mRNA in the presence of chemical substance/The level of expressed mRNA in the absence of chemical substance (yeast gene YNL333W): 2.1
The level of expressed mRNA in the presence of chemical substance/The level of expressed mRNA in the absence of chemical substance (yeast gene YNR010W): 1.1
The level of expressed mRNA in the presence of chemical substance/ (yeast gene YNR068C, ratio to control without chemical): 1.1
The level of expressed mRNA in the presence of chemical substance/The level of expressed mRNA in the absence of chemical substance (yeast gene YNR069C): 1.4
The level of expressed mRNA in the presence of chemical substance/in the absence of chemical substance (yeast gene YNR072W): 0.9
The level of expressed mRNA in the presence of chemical substance/The level of expressed mRNA in the absence of chemical substance (yeast gene YOL013C): 1.0
The level of expressed mRNA in the presence of chemical substance/ (yeast gene YOL032W, ratio to control without chemical): 1.5
The level of expressed mRNA in the presence of chemical substance/ (yeast gene YOL036W, ratio to control without chemical): 0.8
The level of expressed mRNA in the presence of chemical substance/ (yeast gene YOL047C, ratio to control without chemical): 1.1
The level of expressed mRNA in the presence of chemical substance/ (yeast gene YOL071W, ratio to control without chemical): 1.6
The level of expressed mRNA in the presence of chemical substance/ (yeast gene YOL082W, ratio to control without chemical): 1.1
The level of expressed mRNA in the presence of chemical substance/ (yeast gene YOL083W, ratio to control without chemical): 1.3
The level of expressed mRNA in the presence of chemical substance/in the absence of chemical substance (yeast gene YOL096C): 1.0
The level of expressed mRNA in the presence of chemical substance/ (yeast gene YOL117W, ratio to control without chemical): 1.1
The level of expressed mRNA in the presence of chemical substance/ (yeast gene YOL131W, ratio to control without chemical): 1.1
The level of expressed mRNA in the presence of chemical substance/ (yeast gene YOL150C, ratio to control without chemical substance, 2 h culture): 3.7
The level of expressed mRNA in the presence of chemical substance/ (yeast gene YOL162W, ratio to control without chemical): 1.6
The level of expressed mRNA in the presence of chemical substance/The level of expressed mRNA in the absence of chemical substance (yeast gene YOL164W): 1.0
The level of expressed mRNA in the presence of chemical substance/ (yeast gene YOR019W, ratio to control without chemical): 1.1
The level of expressed mRNA in the presence of chemical substance/The level of expressed mRNA in the absence of chemical substance (yeast gene YOR036W): 1.4
The level of expressed mRNA in the presence of chemical substance/The level of expressed mRNA in the absence of chemical substance (yeast gene YOR117W): 1.0
The level of expressed mRNA in the presence of chemical substance/The level of expressed mRNA in the absence of chemical substance (yeast gene YOR124C): 1.3
The level of expressed mRNA in the presence of chemical substance/The level of expressed mRNA in the absence of chemical substance (yeast gene YOR132W): 1.2
The level of expressed mRNA in the presence of chemical substance/The level of expressed mRNA in the absence of chemical substance (yeast gene YOR157C): 1.2
The level of expressed mRNA in the presence of chemical substance/in the absence of chemical substance (yeast gene YOR180C): 0.9
The level of expressed mRNA in the presence of chemical substance/The level of expressed mRNA in the absence of chemical substance (yeast gene YOR181W): 0.7
The level of expressed mRNA in the presence of chemical substance/The level of expressed mRNA in the absence of chemical substance (yeast gene YOR185C): 1.4
The level of expressed mRNA in the presence of chemical substance/ (yeast gene YOR197W, ratio to control without chemical): 0.9
The level of expressed mRNA in the presence of chemical substance/The level of expressed mRNA in the absence of chemical substance (yeast gene YOR198C): 1.3
The level of expressed mRNA in the presence of chemical substance/The level of expressed mRNA in the absence of chemical substance (yeast gene YOR259C): 1.1
The level of expressed mRNA in the presence of chemical substance/The level of expressed mRNA in the absence of chemical substance (yeast gene YOR261C): 2.6
The level of expressed mRNA in the presence of chemical substance/The level of expressed mRNA in the absence of chemical substance (yeast gene YOR288C): 1.9
The level of expressed mRNA in the presence of chemical substance/The level of expressed mRNA in the absence of chemical substance (yeast gene YOR355W): 0.8
The level of expressed mRNA in the presence of chemical substance/in the absence of chemical substance (yeast gene YOR363C): 1.1
The level of expressed mRNA in the presence of chemical substance/The level of expressed mRNA in the absence of chemical substance (yeast gene YOR383C): 1.0
The level of expressed mRNA in the presence of chemical substance/ (yeast gene YPL087W, ratio to control without chemical): 1.0
The level of expressed mRNA in the presence of chemical substance/The level of expressed mRNA in the absence of chemical substance (yeast gene YPL089C): 0.8
The level of expressed mRNA in the presence of chemical substance/The level of expressed mRNA in the absence of chemical substance (yeast gene YPL109C): 1.1
The level of expressed mRNA in the presence of chemical substance/The level of expressed mRNA in the absence of chemical substance (yeast gene YPL149W): 1.1
The level of expressed mRNA in the presence of chemical substance/The level of expressed mRNA in the absence of chemical substance (yeast gene YPL154C): 0.8
The level of expressed mRNA in the presence of chemical substance/ (yeast gene YPL196W, ratio to control without chemical): 1.2
The level of expressed mRNA in the presence of chemical substance/ (yeast gene YPL206C, ratio to control without chemical): 1.0
The level of expressed mRNA in the presence of chemical substance/ (yeast gene YPL222W, ratio to control without chemical): 0.7
The level of expressed mRNA in the presence of chemical substance/ (yeast gene YPR023C, ratio to control without chemical): 0.9
The level of expressed mRNA in the presence of chemical substance/The level of expressed mRNA in the absence of chemical substance (yeast gene YPR103W): 1.0
The level of expressed mRNA in the presence of chemical substance/The level of expressed mRNA in the absence of chemical substance (yeast gene YPR108W): 1.6
The level of expressed mRNA in the presence of chemical substance/ (yeast gene YPR151C, ratio to control without chemical): 1.4
The level of expressed mRNA in the presence of chemical substance/in the absence of chemical substance (yeast gene YPR184W): 0.7
